Laboratory results from patent US9150543B2, “Substituted indolyl alkyl amino derivatives as inhibitors of histone deacetylase” (Janssen Pharmaceutica N. V., priority 2004, dated 2015).
Converted amounts (≈) assume the structure as drawn.

Experiments:
[1] = tested on: A2780 ovarian carcinoma cells; test: Antiproliferative activity on A2780 cells, MTT (C.2); type: cell-based; settings: Homo sapiens, 96 h, four days of incubation, read-out: Cellular activity pIC50 C.2 (converted)
Procedure: All compounds tested were dissolved in DMSO and further dilutions were made in culture medium. Final DMSO concentrations never exceeded 0.1% (v/v) in cell proliferation assays. Controls contained A2780 cells and DMSO without compound and blanks contained DMSO but no cells. MTT was dissolved at 5 mg/ml in PBS. A glycine buffer comprised of 0.1 M glycine and 0.1 M NaCl buffered to pH 10.5 with NaOH (1N) was prepared (all reagents were from Merck).
The human A2780 ovarian carcinoma cells (a kind gift from Dr. T. C. Hamilton [Fox Chase Cancer Centre, Pennsylvania, USA]) were cultured in RPMI 1640 medium supplemented with 2 mM L-glutamine, 50 μg/ml gentamicin and 10% fetal calf serum. Cells were routinely kept as monolayer cultures at 37° C. in a humidified 5% CO2 atmosphere. Cells were passaged once a week using a trypsin/EDTA solution at a split ratio of 1:40. All media and supplements were obtained from Life Technologies. Cells were free of mycoplasma contamination as determined using the Gen-Probe Mycoplasma Tissue Culture kit (supplier: BioMerieux).
Cells were seeded in NUNC™ 96-well culture plates (Supplier: Life Technologies) and allowed to adhere to the plastic overnight. Densities used for plating were 1500 cells per well in a total volume of 200 μl medium. After cell adhesion to the plates, medium was changed and drugs and/or solvents were added to a final volume of 200 μl. Following four days of incubation, medium was replaced by 200 μl fresh medium and cell density and viability was assessed using an MTT-based assay. To each well, 25 μl MTT solution was added and the cells were further incubated for 2 hours at 37° C. The medium was then carefully aspirated and the blue MTT-formazan product was solubilized by addition of 25 μl glycine buffer followed by 100 μl of DMSO. […] Within an experiment, the results for each experimental condition are the mean of 3 replicate wells. For initial screening purposes, compounds were tested at a single fixed concentration of 10^−6 M. For active compounds, the experiments were repeated to establish full concentration-response curves. For each experiment, controls (containing no drug) and a blank incubation (containing no cells or drugs) were run in parallel. The blank value was subtracted from all control and sample values. For each sample, the mean value for cell growth (in absorbance units) was expressed as a percentage of the mean value for cell growth of the control. […] Herein the effects of test compounds are expressed as pIC50 (the negative log value of the IC50-value)(see Table F-3).

[2] = target: histone deacetylase (HeLa nuclear extracts); test: In vitro assay for inhibition of histone deacetylase with [3H]-labelled substrate (C.1.a); type: biochemical; settings: [3H]-acetylated histone H4 peptide substrate
Procedure: As a substrate for measuring HDAC activity a synthetic peptide, i.e. the amino acids 14-21 of histone H4, was used. The substrate is biotinylated at the NH2-terminal part with a 6-aminohexanoic acid spacer, and is protected at the COOH-terminal part by an amide group and specifically [^3H]acetylated at lysine 16. The substrate, biotin-(6-aminohexanoic)Gly-Ala-([^3H]-acetyl-Lys-Arg-His-Arg-Lys-Val-NH2), was added in a buffer containing 25 mM Hepes, 1 M sucrose, 0.1 mg/ml BSA and 0.01% Triton X-100 at pH 7.4. After 30 min the deacetylation reaction was terminated by the addition of HCl and acetic acid. (final concentration 0.035 mM and 3.8 mM respectively). After stopping the reaction, the free ^3H-acetate was extracted with ethylacetate. After mixing and centrifugation, the radioactivity in an aliquot of the upper (organic) phase was counted in a β-counter.
For each experiment, controls (containing HeLa nuclear extract and DMSO without compound), a blank incubation (containing DMSO but no HeLa nuclear extract or compound) and samples (containing compound dissolved in DMSO and HeLa nuclear extract) were run in parallel. In first instance, compounds were tested at a concentration of 10^−5M. […] In each test the blank value was subtracted from both the control and the sample values. The control sample represented 100% of substrate deactylation. For each sample the radioactivity was expressed as a percentage of the mean value of the controls. […] Herein the effects of test compounds are expressed as pIC50 (the negative log value of the IC50-value) (see Table F-3).

[3] = target: histone deacetylase (HeLa nuclear extracts); test: In vitro assay for inhibition of histone deacetylase with fluorescent-labelled substrate (C.1.b); type: biochemical; settings: Fluor de Lys substrate
Procedure: The HDAC Fluorescent Activity Assay/Drug Discovery Kit of Biomol (cat.No: AK-500-0001) was used. The HDAC Fluorescent Activity Assay is based on the Fluor de Lys (Fluorogenic Histone deAcetylase Lysyl) substrate and developer combination. The Fluor de Lys substrate, comprises an acetylated lysine side chain. Deacetylation of the substrate sensitizes the substrate so that, in the second step, treatment with the Fluor de Lys developer produces a fluorophore.
After 30 min, 1 volume of the developer was added. […] For each experiment, controls (containing HeLa nuclear extract and buffer), a blank incubation (containing buffer but no HeLa nuclear extract) and samples (containing compound dissolved in DMSO and further diluted in buffer and HeLa nuclear extract) were run in parallel. In first instance, compounds were tested at a concentration of 10^−5M. […] All sample were tested 4 times. In each test the blank value was subtracted from both the control and the sample values. The control sample represented 100% of substrate deactylation. For each sample the fluorescence was expressed as a percentage of the mean value of the controls. […] Herein the effects of test compounds are expressed as pIC50 (the negative log value of the IC50-value) (see Table F-3).

[4] = Solubility/stability at different pH's, chemiluminescent nitrogen detector (C.3.b); type: physicochemical; settings: aqueous buffer; pH = 2.3
Description: In a second method the solubility of a compound at different pH's can be measured with the use of a Chemiluminescent Nitrogen Detector (see example C.3.b).
The solubility of a compound, at different pH's, can also be measured with the use of a chemiluminescent nitrogen detector. (see Table F-3).

SMILES | IC50 [1] [nM] | Enzymatic activity pIC50 C.1.a. [2] | Enzymatic activity pIC50 C.1.b [3] | melting point [°C] | solubility [4] [µg/mL]
Cn1cc(CNC2CCN(c3ncc(C(=O)NO)cn3)CC2)c2ccccc21 [Compound 6] | 501 | 8.2 |  |  | 
Cn1cc(CCNCC2CCN(c3ncc(C(=O)NO)cn3)CC2)c2ccccc21 [Compound 19] | 79.4 |  | 8.0 | 174 | 
COc1ccc2c(CCNCC3CCN(c4ncc(C(=O)NO)cn4)CC3)cn(C)c2c1 [Compound 24] | 316 |  | 7.6 | 160 | 1600 (≈ 3.65 mM)
CCN(Cc1cn(CC)c2ccccc12)CC1CCN(c2ncc(C(=O)NO)cn2)CC1 [Compound 20] | 7.94 |  | 9.5 | 90 | 2700 (≈ 6.18 mM)
Cc1cccc2c(CNCC3CCN(c4ncc(C(=O)NO)cn4)CC3)c[nH]c12 [Compound 14] | 39.8 |  | 8.4 |  | 1700 (≈ 4.31 mM)
CN(CCc1c[nH]c2ccccc12)CC1CCN(c2ncc(C(=O)NO)cn2)CC1 [Compound 3] | 200 | 8.5 |  | 121 | 
Cn1cc(CCN(CC2CCN(c3ncc(C(=O)NO)cn3)CC2)S(C)(=O)=O)c2cc(Cl)ccc21 [Compound 22] | 63.1 |  | 9.1 | 183 | 
CN(CCc1cn(C)c2ccccc12)CC1CCN(c2ncc(C(=O)NO)cn2)CC1 [Compound 21] | 25.1 |  | 8.5 | 83 | 1900 (≈ 4.5 mM)
Cn1c(CNCC2CCN(c3ncc(C(=O)NO)cn3)CC2)cc2ccccc21 [Compound 11] | 31.6 |  | 8.2 |  | 2800 (≈ 7.1 mM)
O=C(NO)c1cnc(N2CCC(NCc3c[nH]c4ccccc34)CC2)nc1 [Compound 7] | 794 | 8.5 |  |  | 
CCn1c(C)c(CCNC2CCN(c3ncc(C(=O)NO)cn3)CC2)c2ccccc21 [Compound 23] | 31.6 |  | 8.4 | 182 | 
O=C(NO)c1cnc(N2CCC(CNCc3c[nH]c4ccc(Cl)cc34)CC2)nc1 [Compound 2] | 31.6 |  | 8.4 | 205 | 
O=C(NO)c1cnc(N2CCC(CNCc3c[nH]c4ccccc34)CC2)nc1 [Compound 8] | 79.4 |  | 8.3 |  | 2400 (≈ 6.31 mM)
CCN(CCc1cn(C)c2ccccc12)CC1CCN(c2ncc(C(=O)NO)cn2)CC1 [Compound 66] | 39.8 |  | >9.0 |  | 1700 (≈ 3.89 mM)

More lines, now with the values ahead:

IC50 [1] [nM] | Enzymatic activity pIC50 C.1.a. [2] | Enzymatic activity pIC50 C.1.b [3] | melting point [°C] | solubility [4] [µg/mL] | SMILES
31.6 |  | >9.0 | 188 |  | Cn1cc(CCNCC2CCN(c3ncc(C(=O)NO)cn3)CC2)c2cc(Cl)ccc21 [Compound 26]
31.6 |  | 8.7 |  | 3300 (≈ 8.37 mM) | Cn1ccc2c(CNCC3CCN(c4ncc(C(=O)NO)cn4)CC3)cccc21 [Compound 49]
63.1 |  | >9.0 |  | 2500 (≈ 5.92 mM) | CCN(Cc1cn(C)c2ccccc12)CC1CCN(c2ncc(C(=O)NO)cn2)CC1 [Compound 68]
10 |  | 8.8 |  | 4000 (≈ 9.12 mM) | COCCn1cc(CNCC2CCN(c3ncc(C(=O)NO)cn3)CC2)c2ccccc21 [Compound 47]
31.6 |  | 10.0 |  | 1600 (≈ 3.77 mM) | COc1ccc2c(c1)c(CNCC1CCN(c3ncc(C(=O)NO)cn3)CC1)cn2C [Compound 33]
31.6 |  | 9.0 |  | 2100 (≈ 5.09 mM) | Cn1cc(CNCC2CCN(c3ncc(C(=O)NO)cn3)CC2)c2cccc(F)c21 [Compound 30]
15.8 |  | 8.5 |  | 2100 (≈ 4.81 mM) | CCCCn1cc(CNCC2CCN(c3ncc(C(=O)NO)cn3)CC2)c2ccccc21 [Compound 43]
31.6 |  | 8.3 |  | 1900 (≈ 4.65 mM) | CN(Cc1cn(C)c2ccccc12)CC1CCN(c2ncc(C(=O)NO)cn2)CC1 [Compound 67]
100 |  | 7.6 | 80 |  | CCCn1cc(CCN(CC)CC2CCN(c3ncc(C(=O)NO)cn3)CC2)c2ccc(OC)cc21 [Compound 25]
10 |  | >9.0 | 171 |  | CCCn1cc(CNCC2CCN(c3ncc(C(=O)NO)cn3)CC2)c2cc(Cl)ccc21 [Compound 27]
3.98 |  | 8.0 |  | 1500 (≈ 3.5 mM) | Cn1cc(CNCC2CCN(c3ncc(C(=O)NO)cn3)CC2)c2cc(Cl)ccc21 [Compound 32]
200 |  | 9.0 |  | 1700 (≈ 3.64 mM) | CCCn1cc(CNCC2CCN(c3ncc(C(=O)NO)cn3)CC2)c2cc3c(cc21)OCO3 [Compound 45]
79.4 |  | 8.1 | 80 |  | Cc1c(CCNCC2CCN(c3ncc(C(=O)NO)cn3)CC2)c2ccccc2n1C [Compound 28]
25.1 |  | 10.2 |  | 2800 (≈ 7.1 mM) | Cn1ccc2cccc(CNCC3CCN(c4ncc(C(=O)NO)cn4)CC3)c21 [Compound 57]
126 |  | 8.7 |  | 3100 (≈ 6.82 mM) | COc1cc2c(CNCC3CCN(c4ncc(C(=O)NO)cn4)CC3)cn(C)c2cc1OC [Compound 60]
39.8 |  | 8.2 |  | 1800 (≈ 4.56 mM) | Cn1ccc2cc(CNCC3CCN(c4ncc(C(=O)NO)cn4)CC3)ccc21 [Compound 44]
2.51 |  | 8.7 |  | 2500 (≈ 6.12 mM) | Cc1ccc2c(c1)c(CNCC1CCN(c3ncc(C(=O)NO)cn3)CC1)cn2C [Compound 36]
